This note sets out measurements from patent US5614533A, “Substituted pipecolinic acid derivatives as HIV protease inhibitors” (Bio-Mega/Boehringer Ingelheim Research, Inc., priority 1994, dated 1997).

In assay [1] the target is T1, HIV protease (Human immunodeficiency virus type 1 group M subtype B, UniProt P04585).
T1 construct: HIV protease was expressed in E. coli; made in house; host or cells: E. coli (plasmid pBRT1 prt+)
Kind of assay: Recombinant HIV Protease HPLC Assay. In kind it is biochemical. As to conditions: Table IV; 37°, 30 min, pH 5.5. From the text: The procedure is based on the capacity of the test compound to inhibit enzymatic cleavage by HIV protease of a decapeptide (the substrate) having an amino acid sequence which includes a known HIV protease cleavage site of a HIV polyprotein; see H. G. Krausslich et al., Proc. Natl. Acad. Sci. USA, 86, 807 (1989). Details of this assay together with the results obtained for exemplified compounds of formula 1 are described in the examples hereinafter.
Recombinant HIV Protease HPLC Assay:
Enzyme: HIV protease was expressed in E. coli {construct pBRT1 prt^+, see W. G. Farmerie et al., Science, 236, 305 (1987)}, according to the following protocol:
E. coli cells containing the pBRT1 prt^+ plasmid were used to inoculate a seed culture media composed of Luria-Bertani Broth containing 100 μg/mL of ampicillin. Flasks were incubated at 37° under agitation for 17 h. Production flasks containing sterile M9 broth, supplemented with 100 μg/mL of ampicillin, were inoculated at a level of 1% (v/v) using the seed culture described above. Total volume in each production flask was 500 mL in a 2 L Erlenmeyer flask. Flasks were incubated at 37° under agitation until a cell concentration corresponding to an optical density ([…]) of 0.6 was reached (no dilution). This time span was routinely 3-4 h. Flasks were then supplemented with 5 mM isopropylthiogalactoside (IPTG, Research Organics, Cleveland, Ohio, USA) and incubation was continued until the cell concentration reached an optical density of 0.2 at 16-fold dilution. Flasks were then supplemented with 1 mM phenylmethylsulfonyl fluoride (PMSF) and rapidly chilled to 4°. The bacterial cells were recovered by centrifugation at 4°. The wet pellet was stored at -70°.
All steps below were performed at 4° unless otherwise indicated. Thawed cells were mixed with buffer A {50 mM tris(hydroxymethyl)[…] HCl (Tris-HCl, pH 7.4); 0.6 mM ethylenediaminetetraacetic acid (EDTA); 0.375M NaCl, 0.2% Nonidet P-40® (BDH Chemicals Ltd., Poole, UK); 1 mM PMSF}, at a ratio of one part cells to nine parts buffer A. Diatomaceous earth (Celite 545®, John Manville, Lompoc, Calif. USA) was added at a ratio of two parts to one part of wet cell weight. The resulting slurry was homogenized at high speed (ca. 20,000 rpm) on a Waring® industrial blender for 8×15 sec. pulses. Cell debris/Celite® was collected by centrifugation and the resulting pellet was extracted with 4.5 parts of buffer A to one part wet solids using the homogenization procedure described above. Supernatants from both homogenization steps were combined and soluble protein was precipitated by the addition of solid (NH4)2 SO4 to yield a final concentration of 75% saturation. This mixture was agitated for 60 min and the precipitate was recovered by centrifugation. The resulting pellet was suspended in buffer B {50 mM Tris-HCl, pH 8; 30 mM NaCl; 1 mM DL-dithiothreitol (DTT); 1 mM EDTA; 1 mM PMSF; 10% glycerol}, and dialyzed for 18 h against the same buffer.
An aliquot of the dialyzed extract containing 150 mg of the protein was loaded onto a Sephadex A25® anion exchange column (Pharmacia, Uppsala, Sweden) with bed dimensions of 70 cm length and 2.5 cm diameter. The sample was eluted isocratically with buffer B at a linear flow rate of 10 cm/h. Fractions containing HIV protease activity (see below for assay description) were combined, and soluble protein was precipitated by the addition of saturated aqueous (NH4)2 SO4 to yield a total (NH4)2 SO4 concentration of 85% saturation. Precipitated protein was removed by centrifugation and the resulting pellet was dissolved in buffer C {50 mM 2-(4-morpholino)ethanesulfonic acid (MES), pH 5.5; 150 mM NaCl; 1 mM DTT; 1 mM EDTA; 10% glycerol}. This preparation was dialyzed for 18 h against buffer C, and then frozen at -70°. All crude extracts were purified by chromatography in aliquots containing 150 mg of protein in the same manner as described above. […]

Assay [2] relates to HIV (H9/HTLV-IIIB) in C8166 cells. Kind of assay: plaque assay: inhibition of syncytia formation in HIV-infected C8166 cells. The assay is classed as cell-based. The conditions noted are these: Human immunodeficiency virus 1, IIIB, Table IV, 72 h, 50% inhibition of syncytia formation. From the text:
Typical of such procedures are those described by S. Harada and N. Yamamoto, Jpn. J. Cancer Res. (Gann), 76, 432 (1985), and S. Harada et al., Science, 229, 563 (1985). An assay based on the latter procedures is described in the examples hereinafter.
The following protocol, used for screening antiviral effects of the compounds of formula 1, is adapted from a plaque assay utilizing HTLV-I transformed cells, previously reported by Harada et al., supra. HTLV-I transformed cells are used because of the rapidity with which HIV will replicate in the cells.
1. The test compound is dissolved in dimethylsulfoxide to a concentration of 5 mg/mL. The resultant solution can be stored at 4° until use.
2. The resultant solution is diluted in RPMI 1640 (Gibco Laboratories, St. Lawrence, Mass., USA) to four times (4×) the final concentration which is to be tested. Once diluted in RPMI 1640, the solution is used in the cell culture assay within 4 h.
3. The 4× solution (50 μL) is added to triplicate wells of a 96 well flat bottomed microtiter plate. RPMI (50 μL) also is added to control wells.
4. C8166 cells (5×10^4) in 50 μL of HEPES-buffered RPMI 1640 (pH=7.2), 10% heat inactivated fetal calf serum (FCS), […] gentamicin (complete media) are added to all wells.
5. Fifty times TCID50 of H9/HTLV-IIIB stock (stored in liquid nitrogen as cell culture supernatant in 50% FCS) in 100 μL of complete media is added to all wells. Infectious titer of virus stocks are as previously determined by end point dilution on C8166 cells. Titer of stocks are stable for 6-12 months when stored at -193°.
6. Microtiter plates are then placed on level shelves of a 37°, 5% CO2 humidified incubator for 72 h.
7. Plates are then removed and centers of syncytia are counted in each well by low power phase contrast light microscopy. […] Control wells should have between 25 and 75 centers of syncytia per well.
8. Percent inhibition of syncytia formation is calculated by the formula: [formula]
The concentration of the test compound which causes a 50% inhibition of syncytia formation, i.e. the EC50, is determined by using the technique of serial dilution of the working solution at step 3 and by using non-linear regression analysis (SAS® program) to graphically plot the observed percent inhibition of syncytia formation against the various concentrations of the test compound.

Regarding `CC[C@H](C)[C@H](NC(=O)OCc1ccccc1)C(=O)N[C@@H](Cc1ccccc1)[C@H](O)CN1CC[C@@H](c2ccccc2)C[C@H]1C(=O)NC(C)(C)C` [Table IV, entry 11, N-tert-butyl-1-{3(S)-{{N-(benzyloxycarbonyl)isoleucyl}amino}-2(R)-hydroxy-4-phenylbutyl}-4(R)-phenylpiperidine-2(S)-carboxamide], the IC50 in assay [1] worked out at 3.7 nM. Also, the EC50 in assay [2] turned out to be 700 nM.
On the same counts, the results for `CC(C)(C)NC(=O)[C@@H]1C[C@H](c2ccccc2)CCN1C[C@@H](O)[C@H](Cc1ccccc1)NC(=O)[C@H](CC(N)=O)NC(=O)OCc1ccccc1` [Table IV, entry 12] are 6.3 nM and 150 nM.
Regarding `CC(C)[C@H](NC(=O)OCc1ccccc1)C(=O)N[C@@H](Cc1ccccc1)[C@H](O)CN1CC[C@@H](Cc2ccccc2)C[C@H]1C(=O)NC(C)(C)C` [Table IV, entry 13], the IC50 in assay [1] was 4.1 nM. Also, in assay [2], it took 40 nM to reach a half-maximal effect (EC50).
On the same counts, the results for `CC(C)[C@H](NC(=O)OCc1ccccc1)C(=O)N[C@@H](Cc1ccccc1)[C@H](O)CN1CC[C@@H](S(=O)(=O)c2ccccc2)C[C@H]1C(=O)NC(C)(C)C` [Table IV, entry 14] are 2.3 nM and 40 nM.
On the same counts, the results for `CC(C)(C)NC(=O)[C@@H]1C[C@H](S(=O)(=O)c2ccccc2)CCN1C[C@@H](O)[C@H](Cc1ccccc1)NC(=O)[C@H](CC(N)=O)NC(=O)OCc1ccccc1` [Table IV, entry 15] are 2.9 nM and 1270 nM.
Consider `CC(C)[C@H](NC(=O)OCc1ccccc1)C(=O)N[C@@H](Cc1ccccc1)[C@H](O)CN1CC[C@@H](Oc2ccccc2)C[C@H]1C(=O)NC(C)(C)C` [Table IV, entry 16], for which the IC50 in assay [1] came out at 2.7 nM. For the same compound, the response in assay [2] was half-maximal at 150 nM (EC50).
Consider `CC(C)(C)NC(=O)[C@@H]1C[C@H](Oc2ccccc2)CCN1C[C@@H](O)[C@H](Cc1ccccc1)NC(=O)[C@H](CC(N)=O)NC(=O)OCc1ccccc1` [Table IV, entry 17], for which the IC50 in assay [1] amounted to 2.5 nM. Also, the response in assay [2] was half-maximal at 42 nM (EC50).
On the same counts, the results for `CC(C)[C@H](NC(=O)OCc1ccccc1)C(=O)N[C@@H](Cc1ccccc1)[C@H](O)CN1CC[C@@H](Oc2ccccn2)C[C@H]1C(=O)NC(C)(C)C` [Table IV, entry 18] are 1.8 nM and 56 nM.
On the same counts, the results for `CC(C)[C@H](NC(=O)OCc1ccccc1)C(=O)N[C@@H](Cc1ccccc1)[C@H](O)CN1CC[C@@H](C2CCCCC2)C[C@H]1C(=O)NC(C)(C)C` [Table IV, entry 19] are 8 nM and 200 nM.
On the same counts, the results for `CC(C)[C@H](NC(=O)c1ccc2ccccc2n1)C(=O)N[C@@H](Cc1ccccc1)[C@H](O)CN1CC[C@@H](Sc2ccccc2)C[C@H]1C(=O)NC(C)(C)C` [Table IV, entry 20, N-tert-butyl-1-{2(R)-hydroxy-4-phenyl-3(S)-{(N-(2-quinolinylcarbonyl)valyl}amino}butyl}-4(R)-(phenylthio)piperidine-2(S)-carboxamide] are 3.1 nM and 12 nM.
As for `CC(C)(C)NC(=O)[C@@H]1C[C@H](Oc2ccccc2)CCN1C[C@@H](O)[C@H](Cc1ccccc1)NC(=O)[C@H](CC(N)=O)NC(=O)c1ccc2ccccc2n1` [Table IV, entry 21, N-tert-butyl-1-{2(R)-hydroxy-4-phenyl-3(S)-{{N-(2-quinolinylcarbonyl)asparaginyl}amino}butyl}-4(R)-phenoxypiperidine-2(S)-carboxamide], in assay [1], the IC50 was determined as 5.4 nM. Besides, the midpoint of the response in assay [2], the EC50, lay at 15 nM.
On the same counts, the results for `CC(C)(C)NC(=O)[C@@H]1C[C@H](S(=O)(=O)c2ccccc2)CCN1C[C@@H](O)[C@H](Cc1ccccc1)NC(=O)[C@H](CC(N)=O)NC(=O)c1ccc2ccccc2n1` [Table IV, entry 22, N-tert-butyl-1-{2(R)-hydroxy-4-phenyl-3(S)-{{N-(2-quinolinylcarbonyl)asparaginyl}amino}butyl}-4(R)-(phenylsulfonyl)piperidine-2(S)-carboxamide] are 4.7 nM and 450 nM.
As to `CC(C)(C)NC(=O)[C@@H]1C[C@H](Sc2ccccc2)CCN1C[C@@H](O)[C@H](Cc1ccccc1)NC(=O)[C@H](CC(N)=O)NC(=O)c1ccc2ccccc2n1` [Table IV, entry 23, N-tert-butyl-1-{2(R)-hydroxy-4-phenyl-3(S)-{{N-(2-quinolinylcarbonyl)asparaginyl}amino}butyl}-4(R)-(phenylthio)piperidine-2(S)-carboxamide], the IC50 in assay [1] amounted to 1.8 nM. Besides, the EC50 in assay [2] turned out to be 10 nM.
For `CC(C)[C@H](NC(=O)c1ccc2ccccc2c1)C(=O)N[C@@H](Cc1ccccc1)[C@H](O)CN1CC[C@@H](Sc2ccccc2)C[C@H]1C(=O)NC(C)(C)C` [Table IV, entry 24, N-tert-butyl-1-{2(R)-hydroxy-4-phenyl-3(S)-{{N-(2-naphthalenylcarbonyl)valyl}amino}butyl}-4(R)-(phenylthio)piperidine-2(S)-carboxamide], in assay [1], the IC50 is 2.3 nM. In assay [2], this compound gave an EC50 of 16 nM.
Take `CC(C)(C)NC(=O)[C@@H]1C[C@H](Sc2ccccc2)CCN1C[C@@H](O)[C@H](Cc1ccccc1)NC(=O)[C@H](CC(N)=O)NC(=O)c1ccc2ccccc2c1` [Table IV, entry 25, N-tert-butyl-1-{2(R)-hydroxy-3(S)-{{N-(2-naphthalenylcarbonyl)asparaginyl}amino}-4-phenylbutyl}-4(R)-(phenylthio)piperidine-2(S)-carboxamide]: the IC50 in assay [1] stood at 1.9 nM. Further, the EC50 in assay [2] is 33 nM.

By IC50 is commonly meant the concentration at which inhibition is half-maximal. In general, EC50 refers to the concentration that produces a half-maximal response.
